In brackets after ≈: the same amount, converted by molar mass. Like-named read-outs stand apart in the source and are kept apart here. Bridge positions count the residues as written; N and C are the ends. Square brackets hold non-standard residues; d marks the D form. Peptide text beside a SMILES is read from it. * marks the point of attachment. ξ: configuration not given here. Thr(3ξ) = CC(O)[C@H](N)C(=O)O; X9 = CC(C)[C@H](N)CCC(=O)*; Octanoyl = CCCCCCCC(=O)*; Dab = NCC[C@H](N)C(=O)O; X15 = O=C(C1CCNC1)*; GABA = NCCCC(=O)O; βAla = NCCC(=O)O
Columns and labels:
[1] = tested on: E. coli
[2] = tested on: A. baumannii
[3] = tested on: K. pneumoniae
[4] = tested on: P. aeruginosa
[5] = absence of a second agent, Table 6B

Row | Molecule | MIC, E. coli ATCC 25922 [1, 5] [micrograms/mL] | MIC, E. coli NCTC 13441 [1, 5] [micrograms/mL] | MIC, A. baumannii ATCC BAA-747 [2, 5] [micrograms/mL] | MIC, A. baumannii NCTC 13424 [2, 5] [micrograms/mL] | MIC, K. pneumoniae ATCC 4352 [3, 5] [micrograms/mL] | MIC, K. pneumoniae ATCC BAA-2146 [3, 5] [micrograms/mL] | MIC, P. aeruginosa ATCC 27853 [4, 5] [micrograms/mL] | MIC, P. aeruginosa CCUG 59347 [4, 5] [micrograms/mL] | MIC [2] [µg/mL] | other results
1 | (S)-1-((6-oxo-1- phenyl-1,6- dihydropyridin-3- yl)methyl)piperazine- 2-carbonyl Polymyxin B nonapeptide [Example D60] | – | – | – | – | – | – | – | – | – | MIC, E. coli ATCC 25922 ([1]; sole activity, Table 6C): 0.25 micrograms/mL; MIC, E. coli NCTC 13441 ([1]; sole activity, Table 6C): 0.5 micrograms/mL; MIC, A. baumannii ATCC BAA-747 ([2]; sole activity, Table 6C): 4 micrograms/mL; MIC, A. baumannii NCTC 13424 ([2]; sole activity, Table 6C): 2 micrograms/mL; MIC, K. pneumoniae ATCC 4352 ([3]; sole activity, Table 6C): 0.25 micrograms/mL; MIC, K. pneumoniae ATCC BAA-2146 ([3]; sole activity, Table 6C): 0.5 micrograms/mL; MIC, P. aeruginosa ATCC 27853 ([4]; sole activity, Table 6C): 1 micrograms/mL; MIC, P. aeruginosa CCUG 59347 ([4]; sole activity, Table 6C): 2 micrograms/mL
2 | (trans-6- octylpiperidine)-3- carbonyl polymyxin B nonapeptide [Example D18] | 4 | 4 | >8 | >8 | 8 | >8 | 4 | 2 | – | –
3 | (cis-5-(2-methylpropyl) piperidine)-3-carbonyl polymyxin B nonapeptide [Example D48] | 0.125 | 0.125 | 0.5 | 0.5 | 0.125 | 0.25 | 0.25 | 1 | – | –
4 | 1,2,3,4- tetrahydroisoquinoline- 4-carbonyl polymyxin B nonapeptide [Example D14] | >8 | >8 | >8 | >8 | >8 | >8 | 1 | 4 | – | –
5 | 2-benzyl-3- (methylamino)pro- panoyl polymyxin B nonapeptide [Example D57] | – | – | – | – | – | – | – | – | – | MIC, E. coli ATCC 25922 ([1]; sole activity, Table 6C): 0.25 micrograms/mL; MIC, E. coli NCTC 13441 ([1]; sole activity, Table 6C): 0.5 micrograms/mL; MIC, A. baumannii ATCC BAA-747 ([2]; sole activity, Table 6C): 4 micrograms/mL; MIC, A. baumannii NCTC 13424 ([2]; sole activity, Table 6C): 2 micrograms/mL; MIC, K. pneumoniae ATCC 4352 ([3]; sole activity, Table 6C): 0.25 micrograms/mL; MIC, K. pneumoniae ATCC BAA-2146 ([3]; sole activity, Table 6C): 0.25 micrograms/mL; MIC, P. aeruginosa ATCC 27853 ([4]; sole activity, Table 6C): 0.5 micrograms/mL; MIC, P. aeruginosa CCUG 59347 ([4]; sole activity, Table 6C): 1 micrograms/mL
6 | CC(C)C[C@@H]1NC(=O)[C@@H](Cc2ccccc2)NC(=O)[C@H](CCN)NC(=O)[C@@H](NC(=O)[C@H](CCN)NC(=O)[C@@H](NC(=O)C2CCNC2)[C@@H](C)O)CCNC(=O)[C@H]([C@@H](C)O)NC(=O)[C@H](CCN)NC(=O)[C@H](CCN)NC1=O (stereo partly drawn) [Example B8, reference compound] (X15-T[Dab][Dab][Dab][dF]L[Dab][Dab]T; lactam 3-C) | – | – | – | – | – | – | – | – | – | MIC [1]: 4 µg/mL (≈ 3.77 µM)
7 | CC(C)C[C@@H]1NC(=O)[C@@H](Cc2ccccc2)NC(=O)[C@H](CCN)NC(=O)[C@@H](NC(=O)[C@H](CCN)NC(=O)[C@@H](NC(=O)CCCN)[C@@H](C)O)CCNC(=O)[C@H]([C@@H](C)O)NC(=O)[C@H](CCN)NC(=O)[C@H](CCN)NC1=O [Example B5, reference compound] (H-[GABA]T[Dab][Dab][Dab][dF]L[Dab][Dab]T; lactam 4-C) | – | – | – | – | – | – | – | – | 4 (≈ 3.82 µM) | –
8 | (S)-3-amino-2- (benzylamino)pro- panoyl Polymyxin B nonapeptide [Example D59] | – | – | – | – | – | – | – | – | – | MIC, E. coli ATCC 25922 ([1]; sole activity, Table 6C): 0.5 micrograms/mL; MIC, E. coli NCTC 13441 ([1]; sole activity, Table 6C): 0.5 micrograms/mL; MIC, A. baumannii ATCC BAA-747 ([2]; sole activity, Table 6C): 2 micrograms/mL; MIC, A. baumannii NCTC 13424 ([2]; sole activity, Table 6C): 1 micrograms/mL; MIC, K. pneumoniae ATCC 4352 ([3]; sole activity, Table 6C): 0.5 micrograms/mL; MIC, K. pneumoniae ATCC BAA-2146 ([3]; sole activity, Table 6C): 0.5 micrograms/mL; MIC, P. aeruginosa ATCC 27853 ([4]; sole activity, Table 6C): 0.5 micrograms/mL; MIC, P. aeruginosa CCUG 59347 ([4]; sole activity, Table 6C): 1 micrograms/mL
9 | (cis-5-(2-methylpropyl) piperidine)-3-carbonyl polymyxin B nonapeptide [Example D47] | 4 | 8 | >8 | >8 | 4 | 8 | 2 | >8 | – | –
10 | 4- (isobutylamino)pi- peridine-3- carbonyl L-Thr-L- Dap-polymyxin B heptapeptide [Example D74] | – | – | – | – | – | – | – | – | – | MIC, E. coli ATCC 25922 ([1]; sole activity, Table 6C): 0.25 micrograms/mL; MIC, E. coli NCTC 13441 ([1]; sole activity, Table 6C): 0.25 micrograms/mL; MIC, A. baumannii ATCC BAA-747 ([2]; sole activity, Table 6C): 2 micrograms/mL; MIC, A. baumannii NCTC 13424 ([2]; sole activity, Table 6C): 2 micrograms/mL; MIC, K. pneumoniae ATCC 4352 ([3]; sole activity, Table 6C): 0.125 micrograms/mL; MIC, K. pneumoniae ATCC BAA-2146 ([3]; sole activity, Table 6C): 0.5 micrograms/mL; MIC, P. aeruginosa ATCC 27853 ([4]; sole activity, Table 6C): 0.25 micrograms/mL; MIC, P. aeruginosa CCUG 59347 ([4]; sole activity, Table 6C): 0.5 micrograms/mL
11 | CCCCCCCC(=O)NCC(=O)N[C@H](C(=O)N[C@@H](CCN)C(=O)N[C@H]1CCNC(=O)[C@H]([C@@H](C)O)NC(=O)[C@H](CCN)NC(=O)[C@H](CCN)NC(=O)[C@H](CC(C)C)NC(=O)[C@@H](Cc2ccccc2)NC(=O)[C@H](CCN)NC1=O)C(C)O (stereo partly drawn) [CC5, Octanoyl-Gly- Polymyxin B nonapeptide, reference compound] (Octanoyl-G[Thr(3ξ)][Dab][Dab][Dab][dF]L[Dab][Dab]T; lactam 4-C) | – | – | – | – | – | – | – | – | >8 | MIC [1]: 8 µg/mL (≈ 6.98 µM); MIC [3]: 8 µg/mL (≈ 6.98 µM)
12 | CCCCCCCC(=O)N[C@@H](CCN)C(=O)N[C@H](C(=O)N[C@@H](CCN)C(=O)N[C@H]1CCNC(=O)[C@H]([C@@H](C)O)NC(=O)[C@H](CCN)NC(=O)[C@H](CCN)NC(=O)[C@H](CC(C)C)NC(=O)[C@@H](Cc2ccccc2)NC(=O)[C@H](CCN)NC1=O)C(C)O (stereo partly drawn) [CC4, Octanoyl polymyxin B decapeptide, reference compound] (Octanoyl-[Dab][Thr(3ξ)][Dab][Dab][Dab][dF]L[Dab][Dab]T; lactam 4-C) | – | – | – | – | – | – | – | – | 1 (≈ 0.841 µM) | –
13 | trans-4- Phenylpyrrolidine-3- carbonyl polymyxin B nonapeptide [Example D1] | 4 | 4 | 4 | 4 | 2 | 1 | 0.5 | 2 | – | –
14 | CCCCCCCC(=O)N[C@H](C(=O)N[C@@H](CCN)C(=O)N[C@H]1CCNC(=O)[C@H]([C@@H](C)O)NC(=O)[C@H](CCN)NC(=O)[C@H](CCN)NC(=O)[C@H](CC(C)C)NC(=O)[C@@H](Cc2ccccc2)NC(=O)[C@H](CCN)NC1=O)[C@@H](C)O [CC6, Octanoyl polymyxin B nonapeptide, reference compound] (Octanoyl-T[Dab][Dab][Dab][dF]L[Dab][Dab]T; lactam 3-C) | – | – | – | – | – | – | – | – | 4 (≈ 3.67 µM) | MIC [1]: 0.5 µg/mL (≈ 0.459 µM)
15 | CC(C)C[C@@H]1NC(=O)[C@@H](Cc2ccccc2)NC(=O)[C@H](CCN)NC(=O)[C@@H](NC(=O)[C@H](CCN)NC(=O)[C@@H](NC(=O)CC[C@@H](N)C(C)C)[C@@H](C)O)CCNC(=O)[C@H]([C@@H](C)O)NC(=O)[C@H](CCN)NC(=O)[C@H](CCN)NC1=O [Example B6, reference compound] (X9-T[Dab][Dab][Dab][dF]L[Dab][Dab]T; lactam 3-C) | – | – | – | – | – | – | – | – | >8 | MIC [1]: 8 µg/mL (≈ 7.34 µM); MIC [4]: 4 µg/mL (≈ 3.67 µM)
16 | CC(C)C[C@@H]1NC(=O)[C@@H](Cc2ccccc2)NC(=O)[C@H](CCN)NC(=O)[C@@H](NC(=O)[C@H](CCN)NC(=O)[C@@H](NC(=O)CCN)[C@@H](C)O)CCNC(=O)[C@H]([C@@H](C)O)NC(=O)[C@H](CCN)NC(=O)[C@H](CCN)NC1=O [Example B7, reference compound] (H-[βAla]T[Dab][Dab][Dab][dF]L[Dab][Dab]T; lactam 4-C) | – | – | – | – | – | – | – | – | >8 | –

Reference: patent publication US20210221848A1, “POLYMYXIN DERIVATIVES AND THEIR USE IN COMBINATION THERAPY TOGETHER WITH DIFFERENT ANTIBIOTICS” (priority 2014, published 2021)
